The target in the assay is T1, LXRβ (Homo sapiens, UniProt P55055).
T1 construct: Co-transfection expression plasmids, comprising full-length LXRα (pCMX-h LXRα or LXRβ (pCMX-hLXRβ)); expressed in transfected cells; host or cells: CV-1 African green monkey kidney cells, transient transfection with pCMX-hLXRβ
T1 sequence (P55055 1-460): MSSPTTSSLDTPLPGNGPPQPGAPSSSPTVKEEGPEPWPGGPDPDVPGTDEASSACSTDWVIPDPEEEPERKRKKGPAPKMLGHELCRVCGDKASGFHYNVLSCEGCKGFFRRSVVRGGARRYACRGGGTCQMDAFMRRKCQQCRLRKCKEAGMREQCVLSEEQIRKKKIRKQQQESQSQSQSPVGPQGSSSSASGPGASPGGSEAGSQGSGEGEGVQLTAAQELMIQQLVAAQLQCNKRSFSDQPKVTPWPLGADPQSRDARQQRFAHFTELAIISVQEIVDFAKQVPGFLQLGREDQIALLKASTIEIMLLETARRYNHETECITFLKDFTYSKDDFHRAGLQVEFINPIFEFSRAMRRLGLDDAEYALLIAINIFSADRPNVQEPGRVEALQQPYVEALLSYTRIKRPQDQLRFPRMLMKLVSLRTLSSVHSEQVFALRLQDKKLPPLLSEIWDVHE
T1 sequence (P19793 1-462 partner): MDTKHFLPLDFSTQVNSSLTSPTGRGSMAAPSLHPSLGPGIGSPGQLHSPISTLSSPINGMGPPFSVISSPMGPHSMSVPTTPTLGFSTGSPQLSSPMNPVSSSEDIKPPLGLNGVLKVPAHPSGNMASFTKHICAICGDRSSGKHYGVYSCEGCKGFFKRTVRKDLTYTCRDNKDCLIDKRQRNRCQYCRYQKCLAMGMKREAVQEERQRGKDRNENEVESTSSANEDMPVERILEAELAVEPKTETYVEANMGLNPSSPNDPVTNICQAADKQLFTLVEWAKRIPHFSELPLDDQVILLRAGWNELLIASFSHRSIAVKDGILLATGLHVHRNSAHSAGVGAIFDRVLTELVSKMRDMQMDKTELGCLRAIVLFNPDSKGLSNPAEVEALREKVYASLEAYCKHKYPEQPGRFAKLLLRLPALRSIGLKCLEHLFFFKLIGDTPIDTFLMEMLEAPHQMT
Description: LXR/LXRE co-transfection assay (luciferase reporter) in CV-1 cells, LXRβ. The format is cell-based. As to conditions: for EC50: CV-1 cells transfected with pCMX-hLXRβ and LXREx1-Tk-Luciferase, 20 hours incubation, read-out: LXRbeta agonism EC50; for Emax / LXRbeta % EFFICACY: CV-1 cells, relative to maximum response of high control N-(3-((4-fluorophenyl)-(naphthalene-2-sulfonyl)amino)propyl)-2,2-dimethylpropionamide; for Emax: read-out: LXRbeta % EFFICACY
An outline of the steps: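 CV-1 cells transiently co-transfected with full-length human LXRβ, LXRE-Tk-luciferase reporter and β-galactosidase control, then exposed to compound (≤0.5% DMSO) for 20 h at 37 °C before luminescence read. EC50 from 10-point, half-log dose curves; efficacy relative to the sulfonamide high control, means of 2–3 experiments.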
(Reporter assays use an easily measured gene product as a stand-in for the process of interest.)

For orientation: EC50 means the concentration that produces a half-maximal response. In the case of `Cc1nc(-c2ccc(OC(F)(F)F)cc2)c(-c2cc(-c3cc(Cl)c(CO)c(S(C)(=O)=O)c3)ccc2-c2cc(C(F)(F)F)nn2C)o1` [Example 125, (3-chloro-4′-(1-methyl-3-(trifluoromethyl)-1H-pyrazol-5-yl)-3′-(2-methyl-4-(4-(trifluoromethoxy)phenyl)oxazol-5-yl)-5-(methylsulfonyl)-[1,1′-biphenyl]-4-yl)methanol], the EC50 is 179 nM and the Emax came out at 88%.
The matching figures for `Cc1nc(-c2ccc(OC(F)(F)F)cc2)c(-c2cc(-c3cccc(S(N)(=O)=O)c3)ccc2-c2cc(C(F)(F)F)nn2C)o1` [Example 126, 4′-(1-methyl-3-(trifluoromethyl)-1H-pyrazol-5-yl)-3′-(2-methyl-4-(4-(trifluoromethoxy)phenyl)oxazol-5-yl)-[1,1′-biphenyl]-3-sulfonamide]: 299 nM and 85%.
On the same counts, the results for `CNS(=O)(=O)c1cccc(-c2ccc(-c3cc(C(F)(F)F)nn3C)c(-c3oc(C)nc3-c3ccc(OC(F)(F)F)cc3)c2)c1` [Example 127, N-methyl-4′-(1-methyl-3-(trifluoromethyl)-1H-pyrazol-5-yl)-3′-(2-methyl-4-(4-(trifluoromethoxy)phenyl)oxazol-5-yl)-[1,1′-biphenyl]-3-sulfonamide] are 59 nM and 99%.
The matching figures for `Cc1nc(-c2ccc(OC(F)(F)F)cc2)c(-c2cc(-c3cccc(S(C)(=O)=O)c3)ccc2-c2cc(C(F)(F)C(N)=O)nn2C)o1` [Example 128]: 159 nM and 44%.
In the case of `Cc1nc(-c2ccc3c(c2)OC(F)(F)O3)c(-c2cc(-c3cccc(S(C)(=O)=O)c3)ccc2-c2cc(C(C)OC(N)=O)nn2C)o1` (stereo not drawn) [Example 129, 1-(5-(3-(4-(2,2-difluorobenzo[d][1,3]dioxol-5-yl)-2-methyloxazol-5-yl)-3′-(methylsulfonyl)-[1,1′-biphenyl]-4-yl)-1-methyl-1H-pyrazol-3-yl)ethyl carbamate], the EC50 was found to be 87 nM and the Emax was 48%.
For `Cc1nc(-c2ccc3c(c2)OC(F)(F)O3)c(-c2cc(-c3cccc(S(C)(=O)=O)c3)ccc2-c2cc(C(C)OC(N)=O)nn2C)o1` (stereo not drawn) [Example 130, 1-(5-(3-(4-(2,2-difluorobenzo[d][1,3]dioxol-5-yl)-2-methyloxazol-5-yl)-3′-(methylsulfonyl)-[1,1′-biphenyl]-4-yl)-1-methyl-1H-pyrazol-3-yl)ethyl carbamate], the EC50 was found to be 113 nM and the “LXRbeta % EFFICACY” value came out at 56%.
On to `Cc1nc(-c2ccc3c(c2)OC(F)(F)O3)c(-c2cc(-c3cc(F)c(CO)c(S(C)(=O)=O)c3)ccc2-c2cc(C(C)OC(N)=O)nn2C)o1` (stereo not drawn) [Example 131, 1-(5-(3-(4-(2,2-difluorobenzo[d][1,3]dioxol-5-yl)-2-methyloxazol-5-yl)-3′-fluoro-4′-(hydroxymethyl)-5′-(methylsulfonyl)-[1,1′-biphenyl]-4-yl)-1-methyl-1H-pyrazol-3-yl)ethyl carbamate], for which the EC50 was 178 nM and the Emax was 47%.
Take `Cc1nc(-c2ccc3c(c2)OC(F)(F)O3)c(-c2cc(-c3cc(F)c(CO)c(S(C)(=O)=O)c3)ccc2-c2cc(C(C)OC(N)=O)nn2C)o1` (stereo not drawn) [Example 132, 1-(5-(3-(4-(2,2-difluorobenzo[d][1,3]dioxol-5-yl)-2-methyloxazol-5-yl)-3′-fluoro-4′-(hydroxymethyl)-5′-(methylsulfonyl)-[1,1′-biphenyl]-4-yl)-1-methyl-1H-pyrazol-3-yl)ethyl carbamate]: the EC50 stood at 157 nM and the “LXRbeta % EFFICACY” value came out at 49%.
With `CC(=O)c1cc(-c2ccc(-c3cc(F)c(CO)c(S(C)(=O)=O)c3)cc2-c2oc(C)nc2-c2ccc3c(c2)OC(F)(F)O3)n(C)n1` [Example 133, 1-(5-(3-(4-(2,2-difluorobenzo[d][1,3]dioxol-5-yl)-2-methyloxazol-5-yl)-3′-fluoro-4′-(hydroxymethyl)-5′-(methylsulfonyl)-[1,1′-biphenyl]-4-yl)-1-methyl-1H-pyrazol-3-yl)ethanone], the EC50 was determined as 12 nM and the Emax is 66%.
For the molecule `Cc1cc(C(F)(F)F)nn1-c1ccc(-c2cccc(S(C)(=O)=O)c2)cc1-n1nncc1-c1ccc(OC(F)(F)F)cc1` [Example 300, 1-{3′-(methylsulfonyl)-4-[5-methyl-3-(trifluoromethyl)-1H-pyrazol-1-yl]biphenyl-3-yl}-5-{4-[(trifluoromethyl)oxy]phenyl}-1H-1,2,3-triazole], the EC50 is 153 nM and the Emax came to 99%.
On the same counts, the results for `Cc1cc(C(F)(F)F)nn1-c1ccc(-c2cc(F)c(CO)c(S(C)(=O)=O)c2)cc1-n1nncc1-c1ccc(OC(F)(F)F)cc1` [Example 301, [3-fluoro-5-(methylsulfonyl)-4′-[5-methyl-3-(trifluoromethyl)-1H-pyrazol-1-yl]-3′-(5-{4-[(trifluoromethyl)oxy]phenyl}-1H-1,2,3-triazol-1-yl)biphenyl-4-yl]methanol] are 32 nM and 101%.
On the same counts, the results for `Cc1cc(C(F)(F)F)nn1-c1ccc(-c2cc(Cl)c(CO)c(S(C)(=O)=O)c2)cc1-n1nncc1-c1ccc(OC(F)(F)F)cc1` [Example 302, [3-chloro-5-(methylsulfonyl)-4′-[5-methyl-3-(trifluoromethyl)-1H-pyrazol-1-yl]-3′-(5-{4-[(trifluoromethyl)oxy]phenyl}-1H-1,2,3-triazol-1-yl)biphenyl-4-yl]methanol] are 227 nM and 93%.
On the same counts, the results for `Cc1cc(C(F)(F)F)nn1-c1ccc(-c2cccc(C(C)(C)C(N)=O)c2)cc1-n1nncc1-c1ccc(OC(F)(F)F)cc1` [Example 303, 2-methyl-2-{4′-[5-methyl-3-(trifluoromethyl)-1H-pyrazol-1-yl]-3′-(5-{4-[(trifluoromethyl)oxy]phenyl}-1H-1,2,3-triazol-1-yl)biphenyl-3-yl}propanamide] are 825 nM and 102%.
As to `Cc1cc(C(C)(F)F)nn1-c1ccc(-c2cccc(S(C)(=O)=O)c2)cc1-n1nncc1-c1ccc(OC(F)(F)F)cc1` [Example 304, 1-{4-[3-(1,1-difluoroethyl)-5-methyl-1H-pyrazol-1-yl]-3′-(methylsulfonyl)biphenyl-3-yl}-5-{4-[(trifluoromethyl)oxy]phenyl}-1H-1,2,3-triazole], the half-maximal effective concentration (EC50) was determined as 2860 nM and the Emax came out at 26%.
On the same counts, the results for `Cc1cc(C(C)(F)F)nn1-c1ccc(-c2cc(F)c(CO)c(S(C)(=O)=O)c2)cc1-n1nncc1-c1ccc(OC(F)(F)F)cc1` [Example 305, {4′-[3-(1,1-difluoroethyl)-5-methyl-1H-pyrazol-1-yl]-3-fluoro-5-(methylsulfonyl)-3′-(5-{4-[(trifluoromethyl)oxy]phenyl}-1H-1,2,3-triazol-1-yl)biphenyl-4-yl}methanol] are 2040 nM and 45%.
The matching figures for `Cc1cc(C(C)(F)F)n(-c2ccc(-c3cccc(S(C)(=O)=O)c3)cc2-n2nncc2-c2ccc(OC(F)(F)F)cc2)n1` [Example 306, 1-{4-[5-(1,1-difluoroethyl)-3-methyl-1H-pyrazol-1-yl]-3′-(methylsulfonyl)biphenyl-3-yl}-5-{4-[(trifluoromethyl)oxy]phenyl}-1H-1,2,3-triazole]: 203 nM and 71%.
The matching figures for `Cc1cc(C(F)(F)F)nn1-c1ccc(-c2cccc(S(C)(=O)=O)c2)cc1-c1ocnc1-c1ccc(OC(F)(F)F)cc1` [Example 307, 5-{3′-(methylsulfonyl)-4-[5-methyl-3-(trifluoromethyl)-1H-pyrazol-1-yl]biphenyl-3-yl}-4-{4-[(trifluoromethyl)oxy]phenyl}-1,3-oxazole]: 91 nM and 98%.
Turning to `Cc1nc(-c2ccc(OC(F)(F)F)cc2)c(-c2cc(-c3cccc(S(C)(=O)=O)c3)ccc2-n2ccc(C(N)=O)n2)o1` [Example 308, 1-(3-(2-methyl-4-(4-(trifluoromethoxy)phenyl)oxazol-5-yl)-3′-(methylsulfonyl)biphenyl-4-yl)-1H-pyrazole-3-carboxamide], the EC50 turned out to be 1650 nM and the Emax is 29%.

The values above are taken from patent publication US9751869B2, “LXR modulators” (BRISTOL-MYERS SQUIBB COMPANY, priority 2013, dated 2017).
